From the supplement of paper PMC10307832

What follows are cell lines tested with CCCS(=O)(=O)Nc1ccc(F)c(C(=O)c2c[nH]c3ncc(-c4ccc(Cl)cc4)cc23)c1F [Vemurafenib] + Cc1nc(Nc2ncc(C(=O)Nc3c(C)cccc3Cl)s2)cc(N2CCN(CCO)CC2)n1 [Dasatinib] (partner 0.075 µM) (assay: relative viability (nuclei count vs DMSO), 5 days (fraction); higher = more cells survive). Settings: first compound 0.03162 µM.
Procedure, shortened: (§1)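 Five library-drug doses in √10 steps were combined with a fixed anchor-drug dose, or a single drug was given alone, by pin tool to lung cancer cell lines in 1536-well plates the day after seeding. Nuclei were stained and counted after 5 days. Relative viability is the nuclei count in treated wells over that in vehicle wells, taken as the median of duplicate plates.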
For NCI-H322M, the relative viability was 0.241. Work on NCI-H596 yielded a relative viability of 0.567. For 201T, the relative viability was 0.525. Work on SK-MES-1 yielded a relative viability of 0.372. Work on NCI-H441 yielded a relative viability of 0.565. HCC-78 showed a relative viability of 0.359.

Same assay, conditions: first compound 0.1 µM
NCI-H596 gave a relative viability of 0.66. Work on 201T yielded a relative viability of 0.521. Work on SK-MES-1 yielded a relative viability of 0.155. NCI-H441 gave a relative viability of 0.663. For HCC-78, the relative viability was 0.329.

Same assay, conditions: first compound 0.3162 µM
NCI-H596 was tested, and the relative viability was 0.549. 201T was tested, and the relative viability was 0.622. For SK-MES-1, the relative viability was 0.303. Work on NCI-H441 yielded a relative viability of 0.838. HCC-78 showed a relative viability of 0.593.

Same assay, conditions: first compound 1 µM
NCI-H322M was tested, and the relative viability was 0.229. Cell Line NCI-H596 has a relative viability of 0.515. Work on 201T yielded a relative viability of 0.523. In the case of SK-MES-1, the relative viability is reported as 0.389. NCI-H441 showed a relative viability of 0.542. HCC-78 gave a relative viability of 0.37.

These cell lines were tested with Cc1nc(NC(=O)N2CCC[C@H]2C(N)=O)sc1-c1ccnc(C(C)(C)C(F)(F)F)c1 [Alpelisib] + Nc1ncn([C@H]2C[C@H](O)[C@@H](CO)O2)c(=O)n1 [Decitabine] (partner 2 µM) in the same assay as above. Settings: first compound 0.04 µM.
Procedure, shortened: as §1
Work on NCI-H322M yielded a relative viability of 0.722. NCI-H596 gave a relative viability of 1. Cell Line 201T has a relative viability of 0.85. With SK-MES-1 the relative viability was 0.363. NCI-H441 was tested, and the relative viability was 0.244. In the case of HCC-78, the relative viability is reported as 0.705.

Same assay, conditions: first compound 0.1265 µM
NCI-H322M was tested, and the relative viability was 0.707. Cell Line NCI-H596 has a relative viability of 0.954. 201T gave a relative viability of 0.78. In the case of SK-MES-1, the relative viability is reported as 0.376. NCI-H441 gave a relative viability of 0.215. With HCC-78 the relative viability was 0.67.

Same assay, conditions: first compound 0.4 µM
Cell Line NCI-H322M has a relative viability of 0.721. NCI-H596 gave a relative viability of 1.01. Cell Line 201T has a relative viability of 0.88. SK-MES-1 was tested, and the relative viability was 0.358. In the case of NCI-H441, the relative viability is reported as 0.271. HCC-78 was tested, and the relative viability was 0.657.

Same assay, conditions: first compound 1.265 µM
Work on NCI-H322M yielded a relative viability of 0.627. NCI-H596 was tested, and the relative viability was 0.699. Cell Line 201T has a relative viability of 0.772. With SK-MES-1 the relative viability was 0.292. Work on NCI-H441 yielded a relative viability of 0.22. HCC-78 gave a relative viability of 0.562.

Same assay, conditions: first compound 4 µM
In the case of NCI-H322M, the relative viability is reported as 0.529. NCI-H596 showed a relative viability of 0.61. With 201T the relative viability was 0.628. For SK-MES-1, the relative viability was 0.297. Cell Line NCI-H441 has a relative viability of 0.224. For HCC-78, the relative viability was 0.533.

What follows are cell lines tested with COc1cccc2cc(-c3nc([C@H]4CC[C@H](C(=O)O)CC4)n4ncnc(N)c34)[nH]c12 [OSI-027] + O=C(c1cc(Cc2n[nH]c(=O)c3ccccc23)ccc1F)N1CCN(C(=O)C2CC2)CC1 [Olaparib] (partner 8 µM) in the same assay as above. Settings: first compound 0.01 µM.
Procedure, shortened: as §1
NCI-H322M showed a relative viability of 0.818. NCI-H596 was tested, and the relative viability was 0.743. 201T showed a relative viability of 0.909. For SK-MES-1, the relative viability was 0.62. NCI-H441 gave a relative viability of 0.649. Cell Line HCC-78 has a relative viability of 0.769.

Same assay, conditions: first compound 0.03162 µM
With NCI-H322M the relative viability was 0.718. Work on NCI-H596 yielded a relative viability of 0.688. In the case of 201T, the relative viability is reported as 0.908. For SK-MES-1, the relative viability was 0.605. In the case of NCI-H441, the relative viability is reported as 0.58. In the case of HCC-78, the relative viability is reported as 0.699.

Same assay, conditions: first compound 0.1 µM
In the case of NCI-H322M, the relative viability is reported as 0.813. In the case of NCI-H596, the relative viability is reported as 0.651. With 201T the relative viability was 0.838. SK-MES-1 showed a relative viability of 0.532. With NCI-H441 the relative viability was 0.548. Work on HCC-78 yielded a relative viability of 0.723.

Same assay, conditions: first compound 0.3162 µM
With NCI-H322M the relative viability was 0.666. With NCI-H596 the relative viability was 0.684. 201T showed a relative viability of 0.887. SK-MES-1 gave a relative viability of 0.417. Cell Line NCI-H441 has a relative viability of 0.494. For HCC-78, the relative viability was 0.558.

Same assay, conditions: first compound 1 µM
Cell Line NCI-H322M has a relative viability of 0.505. In the case of NCI-H596, the relative viability is reported as 0.612. Work on 201T yielded a relative viability of 0.802. SK-MES-1 gave a relative viability of 0.285. With NCI-H441 the relative viability was 0.3. With HCC-78 the relative viability was 0.397.

These cell lines were tested with COc1cccc2cc(-c3nc([C@H]4CC[C@H](C(=O)O)CC4)n4ncnc(N)c34)[nH]c12 [OSI-027] + CS(=O)(=O)N1CCN(Cc2cc3nc(-c4cccc5[nH]ncc45)nc(N4CCOCC4)c3s2)CC1 [Pictilisib] (partner 1 µM) in the same assay as above. Settings: first compound 0.01 µM.
Procedure, shortened: as §1
Work on NCI-H322M yielded a relative viability of 0.574. NCI-H596 gave a relative viability of 0.41. 201T was tested, and the relative viability was 0.688. SK-MES-1 showed a relative viability of 0.323. Work on NCI-H441 yielded a relative viability of 0.459. Work on HCC-78 yielded a relative viability of 0.202.

Same assay, conditions: first compound 0.03162 µM
NCI-H322M gave a relative viability of 0.443. Work on NCI-H596 yielded a relative viability of 0.435. Cell Line 201T has a relative viability of 0.683. SK-MES-1 gave a relative viability of 0.362. NCI-H441 gave a relative viability of 0.312. With HCC-78 the relative viability was 0.225.

Same assay, conditions: first compound 0.1 µM
NCI-H322M was tested, and the relative viability was 0.485. NCI-H596 was tested, and the relative viability was 0.361. Work on 201T yielded a relative viability of 0.667. SK-MES-1 was tested, and the relative viability was 0.333. Work on NCI-H441 yielded a relative viability of 0.491. HCC-78 showed a relative viability of 0.184.

Same assay, conditions: first compound 0.3162 µM
NCI-H322M gave a relative viability of 0.416. Cell Line NCI-H596 has a relative viability of 0.317. Cell Line 201T has a relative viability of 0.553. In the case of SK-MES-1, the relative viability is reported as 0.278. NCI-H441 was tested, and the relative viability was 0.312. HCC-78 gave a relative viability of 0.19.

Same assay, conditions: first compound 1 µM
For NCI-H322M, the relative viability was 0.405. In the case of NCI-H596, the relative viability is reported as 0.311. In the case of 201T, the relative viability is reported as 0.541. In the case of SK-MES-1, the relative viability is reported as 0.252. NCI-H441 gave a relative viability of 0.257. HCC-78 gave a relative viability of 0.207.
